Reference: the NIST ThermoML archive (doi:10.1021/je5000692)
Numbers after ± are expanded uncertainties.

Experiment: relative permittivity at various frequencies (dimensionless)
Details: Liquid, Frequency=0.001 MHz, Coaxial cylinder capacitor

CCCCCCCC [octane]
Details | relative permittivity
303.07 K, 5010 kPa | 1.94148 ± 0.0007
303.07 K, 10050 kPa | 1.94875 ± 0.0007
303.07 K, 20060 kPa | 1.96184 ± 0.00072
303.07 K, 25030 kPa | 1.9682 ± 0.00072
333.25 K, 5040 kPa | 1.90899 ± 0.00072
333.25 K, 6780 kPa | 1.91211 ± 0.00071
333.25 K, 10020 kPa | 1.91777 ± 0.0007
333.25 K, 20050 kPa | 1.93287 ± 0.0007
333.25 K, 25050 kPa | 1.93989 ± 0.0007
373.16 K, 5040 kPa | 1.85755 ± 0.00069
373.16 K, 10030 kPa | 1.8684 ± 0.00069
373.16 K, 20030 kPa | 1.88737 ± 0.00069
373.16 K, 25060 kPa | 1.89562 ± 0.00071
398.17 K, 5010 kPa | 1.8243 ± 0.00067
398.17 K, 10010 kPa | 1.8374 ± 0.00067
398.17 K, 20050 kPa | 1.85955 ± 0.00069
398.17 K, 25040 kPa | 1.87023 ± 0.00069
